Read-outs that look alike come from different tables or passages of the source.
Key:
[1] = target: Beta Secretase enzyme (BACE1) (Homo sapiens, UniProt P56817); assay: In vitro enzymatic BACE FRET assay; type: biochemical; details: read-out: BACE1 FRET assay IC50
Procedure, shortened: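 BACE1 cleavage of a 50 nM fluorophore/quencher peptide FRET substrate ran for one hour in 0.05 M acetate pH 4.2, 10% DMSO, 100 uM genapol. Tris buffer raised pH to neutrality to stop the reaction before fluorescence was read (excitation 488 nm, […]).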

[2] = tested on: Aβ40 in conditioned medium of cells stably expressing Amyloid Precursor Protein (APP); assay: In vitro BACE cell-based assay (HEK cell assay), Aβ40 sandwich ELISA; details: Homo sapiens, HEK293
Procedure, shortened: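 APP-stably expressing cells (40K/well, grown 24 h in DMEM/10% FBS) were treated 24 h with compounds in 10-point dose response starting at 100 μM or 10 μM, 0.1% DMSO final. Secreted Aβ40 was measured by sandwich ELISA (pAb40 capture, biotinylated 6E10 detection, europium time-resolved fluorescence); IC50 from percent inhibition.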

[3] = target: T1, Cathepsin D (Cat D) (Homo sapiens, UniProt P07339); assay: In vitro enzymatic Cathepsin D (Cat D) FRET assay; type: biochemical; details: read-out: CatD IC50
T1 construct: Recombinant Cat D was expressed in CHO cells; made in house; host or cells: CHO cells
Procedure, shortened: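 Recombinant Cat D expressed in CHO cells, used at 9 nM and pre-incubated one hour with serially diluted inhibitor in DMSO. Peptide substrate carries a fluorophore and quencher flanking the cleavage site; reaction stopped with Tris buffer raising pH to neutrality, then fluorescence read.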

Sequence of Beta Secretase enzyme (BACE1) (P56817 46-501): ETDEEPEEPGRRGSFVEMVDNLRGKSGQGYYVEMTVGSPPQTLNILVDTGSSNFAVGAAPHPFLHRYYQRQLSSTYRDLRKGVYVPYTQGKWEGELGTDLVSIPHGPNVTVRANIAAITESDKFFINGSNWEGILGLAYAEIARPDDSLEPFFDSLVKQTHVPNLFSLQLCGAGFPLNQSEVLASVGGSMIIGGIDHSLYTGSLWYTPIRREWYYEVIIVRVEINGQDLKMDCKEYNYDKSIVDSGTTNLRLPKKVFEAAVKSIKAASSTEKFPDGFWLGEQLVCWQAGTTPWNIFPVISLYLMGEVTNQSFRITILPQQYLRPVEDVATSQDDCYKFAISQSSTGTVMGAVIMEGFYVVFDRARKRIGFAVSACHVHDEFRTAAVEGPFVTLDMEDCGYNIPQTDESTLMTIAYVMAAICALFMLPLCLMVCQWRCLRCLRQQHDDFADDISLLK
T1 sequence (P07339 65-412, species assumed): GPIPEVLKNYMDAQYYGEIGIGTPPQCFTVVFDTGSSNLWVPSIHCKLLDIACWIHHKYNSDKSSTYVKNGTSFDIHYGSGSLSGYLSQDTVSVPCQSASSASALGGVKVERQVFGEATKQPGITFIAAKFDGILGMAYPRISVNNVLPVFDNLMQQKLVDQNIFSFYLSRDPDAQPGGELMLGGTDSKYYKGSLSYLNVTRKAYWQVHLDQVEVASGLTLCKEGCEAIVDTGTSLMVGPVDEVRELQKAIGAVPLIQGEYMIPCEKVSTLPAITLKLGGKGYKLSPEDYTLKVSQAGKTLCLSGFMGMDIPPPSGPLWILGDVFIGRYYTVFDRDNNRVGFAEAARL

Structure (SMILES) | IC50 ([1]; average IC50, enzyme assay) [nM] | IC50 ([2]; average IC50, cell assay) [nM] | IC50 [3] [nM] | IC50 [1] [nM] | IC50 [2] [nM] | IC50 ([2]; average IC50, HEK cell assay) [nM]
C[C@@]1(c2cc(Br)ccc2F)CS(=O)(=O)[C@]2(C[C@@H](F)C2)C(N)=N1 [Example 118, (2S,4s,7R)-9-amino-7-(5-bromo-2-fluorophenyl)-2-fluoro-7-methyl-5-thia-8-azaspiro[3.5]non-8-ene 5,5-dioxide] | 4090 | > 15600 | 31100 |  |  | 
C[C@@]1(c2cc(NC(=O)c3ccc(Cl)cn3)ccc2F)CS(=O)(=O)C2(CC(F)(F)C2)C(N)=N1 [Example 120, (R)—N-(3-(9-amino-2,2-difluoro-7-methyl-5,5-dioxido-5-thia-8-azaspiro[3.5]non-8-en-7-yl)-4-fluorophenyl)-5-chloropicolinamide] |  |  | 148000 | 1.3 | 27.2 | 
Cc1cc(OC(F)F)cnc1C(=O)Nc1ccc(F)c([C@]2(C)CS(=O)(=O)C3(CCC3)C(N)=N2)c1 [Example 121, (R)—N-(3-(9-amino-7-methyl-5,5-dioxido-5-thia-8-azaspiro[3.5]non-8-en-7-yl)-4-fluorophenyl)-5-(difluoromethoxy)-3-methylpicolinamide] |  |  | 67500 | 3.11 | 7.4 | 
Cc1cc(C(F)F)cnc1C(=O)Nc1ccc(F)c([C@]2(C)CS(=O)(=O)C3(CCC3)C(N)=N2)c1 [Example 123, (R)—N-(3-(9-amino-7-methyl-5,5-dioxido-5-thia-8-azaspiro[3.5]non-8-en-7-yl)-4-fluorophenyl)-5-(difluoromethyl)-3-methylpicolinamide] |  |  | 150000 | 4.57 | 6.3 | 
Cc1cc(Cl)cnc1C(=O)Nc1ccc(F)c([C@]2(C)CS(=O)(=O)C3(CC(F)(F)C3)C(N)=N2)c1 [Example 124, (R)—N-(3-(9-amino-2,2-difluoro-7-methyl-5,5-dioxido-5-thia-8-azaspiro[3.5]non-8-en-7-yl)-4-fluorophenyl)-5-chloro-3-methylpicolinamide] |  |  | 96300 | < 2 | 24.6 | 
C[C@@]1(c2cc(NC(=O)c3ccc(Cl)cn3)ccc2F)CS(=O)(=O)[C@]2(C[C@@H](F)C2)C(N)=N1 [Example 125, N-(3-((2S,4s,7R)-9-amino-2-fluoro-7-methyl-5,5-dioxido-5-thia-8-azaspiro[3.5]non-8-en-7-yl)-4-fluorophenyl)-5-chloropicolinamide] |  |  | 42800 | 1 | 10.7 | 
Cc1cc(OC(F)F)cnc1C(=O)Nc1ccc(F)c([C@]2(C)CS(=O)(=O)C3(CC(F)(F)C3)C(N)=N2)c1 [Example 126, (R)—N-(3-(9-amino-2,2-difluoro-7-methyl-5,5-dioxido-5-thia-8-azaspiro[3.5]non-8-en-7-yl)-4-fluorophenyl)-5-(difluoromethoxy)-3-methylpicolinamide] |  |  | 45600 | 3.76 | 17.7 | 
COc1cnc2c(Nc3ccc(F)c([C@]4(C)CS(=O)(=O)C5(CC(F)(F)C5)C(N)=N4)c3)nccc2n1 [Example 128, (R)-9-amino-2,2-difluro-7-(2-fluoro-5-((2-methoxypyrido[3,4b]pyrazin-5-yl)amino)phenyl)-7-methyl-5-thia-8-azaspiro[3.5]non-8-ene 5,5-dioxide] | 25.9 | 199 | 330000 |  |  | 
C[C@]1(c2cc(NC(=O)c3ccc(Cl)cn3)ccc2F)N=C(N)C2(CCC2)S(=O)(=O)[C@@H]1F [Example 131, N-(3-((6S,7R)-9-amino-6-fluoro-7-methyl-5,5-dioxido-5-thia-8-azaspiro[3.5]non-8-en-7-yl)-4-fluorophenyl)-5-chloropicolinamide] |  |  | 162000 | 1.6 | 9.01 | 
Cc1cc(OC(F)F)cnc1C(=O)Nc1ccc(F)c([C@@]2(C)N=C(N)C3(CCC3)S(=O)(=O)[C@@H]2F)c1 [Example 132, N-(3-((6S,7R)-9-amino-6-fluoro-7-methyl-5,5-dioxido-5-thia-8-azaspiro[3.5]non-8-en-7-yl)-4-fluorophenyl)-5-(difluoromethoxy)-3-methylpicolinamide] |  |  | 61800 | 2.97 | 5.8 | 
Cc1cc(C(F)F)cnc1C(=O)Nc1ccc(F)c([C@@]2(C)N=C(N)C3(CCC3)S(=O)(=O)[C@@H]2F)c1 [Example 136, N-(3-((6S,7R)-9-amino-6-fluoro-7-methyl-5,5-dioxido-5-thia-8-azaspiro[3.5]non-8-en-7-yl)-4-fluorophenyl)-5-(difluoromethyl)-3-methylpicolinamide] |  |  | 236000 | 2.1 | 4.9 | 
COc1cnc(C(=O)Nc2ccc(F)c([C@@]3(C)N=C(N)C4(CCC4)S(=O)(=O)[C@@H]3F)c2)c(C)c1 [Example 137, N-(3-((6S,7R)-9-amino-6-fluoro-7-methyl-5,5-dioxido-5-thia-8-azaspiro[3.5]non-8-en-7-yl)-4-fluorophenyl)-5-methoxy-3-methylpicolinamide] |  |  | 81300 | 3.63 | 6.4 | 
COc1cc(Cl)cnc1C(=O)Nc1ccc(F)c([C@@]2(C)N=C(N)C3(CCC3)S(=O)(=O)[C@@H]2F)c1 [Example 139, N-(3-((6S,7R)-9-amino-6-fluoro-7-methyl-5,5-dioxido-5-thia-8-azaspiro[3.5]non-8-en-7-yl)-4-fluorophenyl)-5-chloro-3-methoxypicolinamide] |  |  | 408000 | 3.8 | 11.8 | 
C[C@]1(c2cc(NC(=O)c3cnc(C(F)F)cn3)ccc2F)N=C(N)C2(CCC2)S(=O)(=O)[C@@H]1F [Example 140, N-(3-((6S,7R)-9-amino-6-fluoro-7-methyl-5,5-dioxido-5-thia-8-azaspiro[3.5]non-8-en-7-yl)-4-fluorophenyl)-5-(difluoromethyl)pyrazine-2-carboxamide] |  |  | > 400000 | 8.8 | 14.6 | 
Cc1cc(OC(F)F)cnc1C(=O)Nc1ccc(F)c([C@]2(C)CS(=O)(=O)C(C)(C)C(N)=N2)c1 [Example 144, (R)—N-(3-(5-amino-3,6,6-trimethyl-1,1-dioxido-3,6-dihydro-2H-1,4-thiazin-3-yl)-4-fluorophenyl)-5-(difluoromethoxy)-3-methylpicolinamide] |  |  | 96700 | 0.6 | 1.6 | 
Cc1c(CNc2cc([C@]3(C)CS(=O)(=O)C(C)(C)C(N)=N3)c(F)cn2)nc2ccc(Cl)cn12 [Example 145, (R)-5-amino-3-(2-(((6-chloro-3-methylimidazo[1,2-a]pyridin-2-yl)methyl)amino)-5-fluoropyridin-4-yl)-3,6,6-trimethyl-3,6-dihydro-2H-1,4-thiazine-1,1-dioxide] | 440 |  | 102000 |  |  | 412
C[C@@]1(c2cc(Br)ncc2F)CS(=O)(=O)C2(CCC2)C(N)=N1 [Example 147, (R)-9-amino-7-(2-bromo-5-fluoropyridin-4-yl)-7-methyl-5-thia-8-azaspiro[3.5]non-8-ene 5,5-dioxide] | 17000 | > 15600 | 43500 |  |  | 
Cc1cc(OC(F)F)cnc1C(=O)Nc1ccc(F)c([C@]2(CF)CS(=O)(=O)C(C)(C)C(N)=N2)c1 [Example 148, (S)—N-(3-(5-amino-3-(fluoromethyl)-6,6-dimethyl-1,1-dioxido-3,6-dihydro-2H-1,4-thiazin-3-yl)-4-fluorophenyl)-5-(difluoromethoxy)-3-methylpicolinamide] |  |  | 213000 | 1.63 | 9.1 | 

From US20140107109A1, “AMINO-DIHYDROTHIAZINE AND AMINO-DIOXIDO DIHYDROTHIAZINE COMPOUNDS AS BETA-SECRETASE ANTAGONISTS AND METHODS OF USE” (Amgen Inc., priority 2012, published 2014)
